# System: Eimeria tenella sporocytes
# Experiment: in vitro comparative trials for effectiveness: chicken fibroblasts infected with E. tenella sporocytes
# Type: cell-based
# Details: 24 hours of incubation; for cells quantified in 9 fields, X (±SD): CS-3 chicken fibroblasts + E. tenella sporocytes (about 3 per cell), microscope 40 X; for cells quantified in 9 fields, Means mean (±SD): mean of replications A to C, CS-3 chicken fibroblasts + E. tenella sporocytes
Structure (SMILES),"cells quantified in 9 fields, X (±SD) (Replication A)","cells quantified in 9 fields, X (±SD) (Replication B)","cells quantified in 9 fields, X (±SD) (Replication C)","cells quantified in 9 fields, Means mean (±SD)"
Cc1cc(-n2c(=O)[nH]c(=O)n(C)c2=O)ccc1Oc1ccc(SC(F)(F)F)cc1 [Example 2],999 (12),899 (8),789 (6),895 (105)
"CO[C@@H]1[C@@H](OC)[C@H](C)[C@@](O)(CC(=O)O)O[C@H]1[C@H](C)[C@H]1O[C@@]2(CC[C@@](C)([C@H]3CC[C@@](C)([C@@H]4O[C@@H]([C@H]5O[C@](C)(O)[C@H](C)C[C@@H]5C)C[C@@H]4O[C@@H]4C[C@H](OC)[C@@H](OC)[C@H](C)O4)O3)O2)C[C@H](O)[C@H]1C [Example 1, Maduramicine]",268 (29),156 (35),239 (21),221 (58)

# From patent publication EP2319515A1, “COCCIDICIDE COMBINATION FOR VETERINARY USE” (Laboratorio Avi-Mex, S.A. De C.V., priority 2008, dated 2010)
